Test results: patent US10576126B2, “Antitumor agent” (NATIONAL UNIVERSITY CORPORATION ASAHIKAWA MEDICAL UNIVERSITY, priority 2016, dated 2020)
“Also recorded” adds a separate entry of the source. Read-outs that look alike come from different tables or passages of the source. Where a SMILES comes first, the peptide text is derived from it. [ ]: non-standard residue; d: D form. Orn(N5-OH,N5-Ac) = CC(=O)N(O)CCC[C@H](N)C(=O)O

Columns and labels:
[1] = tested on: colorectal cancer cell line Caco2/bbe; assay: SRB assay, colorectal cancer cell line Caco2/bbe; type: cell-based
Description: (§1) L. casei ATCC334, LGG ATCC53103, L. coryniformis ATCC25600 and L. fermentis ATCC23271 were purchased from ATCC. These microorganisms were cultured overnight at 37° C. using MRS broth (Difco) and then transferred to MEM and cultured for one day. The cultured medium was centrifuged at 5,000×g for 10 minutes to collect the supernatant, which was filtered through a 0.2 μm filter and used as the culture supernatant in the following examples.
(§2) By using the colorectal cancer cell lines Caco2/bbe, SKCO-1 and SW620 as test cells and the culture supernatants of LGG ATCC53103, L. casei ATCC334, L. coryniformis ATCC25600 and L. fermentis ATCC23271 as measurement samples, an antitumor activity of each supernatant was measured by SRB-assay.

[2] = tested on: mouse primary intestinal epithelial cells; assay: SRB assay, mouse primary intestinal epithelial cells; type: cell-based
Description: Mouse primary intestinal epithelial cells were prepared and cultured according to the method as reported previously (Liu X et al., Am J Pathol. 2012 February; 180(2): 599-607).

[3] = tested on: pancreatic cancer cell line Miapaca; assay: Antitumor activity, pancreatic cancer cell line Miapaca; type: cell-based
[4] = tested on: DNA damage-inducible transcript 3 (DDIT3); assay: DDIT3 expression in SW620; type: cell-based
Description: Changes in mRNA expression between ferrichrome-treated and untreated colorectal cancer cell line SW620 were measured by high-throughput sequence analysis using a MetaCore software program. […] DDIT3 is a protein known to be involved in Bax-Bak mitochondrial permeation and JNK signaling (Tabas I, Ron D. Nat Cell Biol. 2011 March; 13(3): 184-90).

phosphorylated JNK = assay: Western blotting for phosphorylated JNK in SW620; type: cell-based; conditions: ferrichrome-treated SW620, Western blotting
[5] = tested on: gastric cancer cell line MKN74; assay: Antitumor activity, gastric cancer cell line MKN74; type: cell-based
[6] = tested on: colorectal cancer cell line SKCO-1; assay: SRB assay, colorectal cancer cell line SKCO-1; type: cell-based; conditions: SKCO-1, SRB assay
Description: as §1, §2

[7] = tested on: gastric cancer cell line MKN7; assay: Antitumor activity, gastric cancer cell line MKN7; type: cell-based
[8] = tested on: pancreatic cancer cell line KP3L; assay: Antitumor activity, pancreatic cancer cell line KP3L; type: cell-based
[9] = tested on: pancreatic cancer cell line suit2; assay: SRB assay, pancreatic cancer cell line suit2; type: cell-based
[10] = tested on: esophageal cancer cell line OE19; assay: Antitumor activity, esophageal cancer cell line OE19; type: cell-based
[11] = tested on: tumor in the large intestine; assay: AOM-DSS chemical carcinogenic mice, oral administration; type: in vivo; conditions: 50 μg orally daily for 28 days, vs PBS
Description: Azoxymethane (AOM) was administered intraperitoneally at 10 mg/kg to BALB/c mice (6 weeks old, male). Following 1 week breeding after AOM treatment, mice were administered drinking water containing dextran sulfate sodium (DSS, MP bio) diluted to 1.5% with distilled water by free access for 1 week. After a 1-week wash-out period, mice were administered drinking water containing dextran sulfate sodium (DSS, MP bio) diluted to 1% with distilled water by free access for 1 week, to prepare chemical carcinogenic models. After one more 1-week wash-out period, 50 μg of ferrichrome diluted in PBS was orally administered daily for 28 days under normal breeding conditions. After breeding, the large intestine was taken out from the mice and the tumor area was measured.
(§3) Normal mice not administered AOM and DSS and chemical carcinogenic mice orally administered PBS alone were prepared, respectively, and the tumor area in the large intestine was measured in the same manner. Photographs showing the appearance of the large intestine in each mouse are shown in FIG. 23, and tumor areas in the large intestine are shown in FIG. 24.

[12] = tested on: colorectal cancer cell line SW620; assay: TUNEL staining of SW620; type: cell-based; conditions: SW620, 0.1 μg/mL
[13] = tested on: gastric cancer cells MKN45; assay: MKN45 subcutaneous transplantation in BALB/c nude mice; type: in vivo; conditions: 100 μg daily into the transplantation site, vs PBS
Description: Two groups of BALB/c nude mice (n=6/group) were transplanted with 1×10^6 gastric cancer cells MKN45 by subcutaneous injection into their back. Each day from the day following transplantation, 100 μg of ferrichrome dissolved in PBS in one group and PBS alone in the other group were administered into the transplantation site, and the mice were kept under normal breeding conditions for 21 days. Photographs of the transplantation site 1 day and 19 days after transplantation are shown in FIG. 19, and the change in tumor volume ratio when the tumor volume 1 day after transplantation set to 1 is shown in FIG. 20.

[14] = tested on: esophageal cancer cell line OE33; assay: SRB assay, esophageal cancer cell line OE33; type: cell-based
[15] = tested on: colorectal cancer cell line HCT116; assay: SRB assay, colorectal cancer cell line HCT116; type: cell-based
[16] = tested on: gastric cancer cell line SH-10-TC; assay: SRB assay, gastric cancer cell line SH-10-TC; type: cell-based
[17] = tested on: colorectal cancer cell line SW620; assay: SW620 subcutaneous transplantation in BALB/c-nude mice; type: in vivo; conditions: 10 μg/day to the transplantation site, daily, observed for 9 days, vs PBS
Excerpt: 2×10^6 cells of colorectal cancer cell line SW620 were transplanted subcutaneously into the back of BALB/c-nude mice. […] The appearance of the mice on day 1 after transplantation and on day 9 after transplantation are shown in FIG. 6, and the change in tumor mass volume is shown in FIG. 7, respectively.

[18] = tested on: pancreatic cancer cell Suit2; assay: Suit2 subcutaneous transplantation in nude mice; type: in vivo; conditions: 100 μg intraperitoneally once every two days for 12 days, vs PBS
Description: Two days after subcutaneous transplantation of 1×10^6 pancreatic cancer cell Suit2 in two groups of nude mice (n=5/group), 100 μg of ferrichrome dissolved in PBS in one group and PBS alone in the other group were administered intraperitoneally once every two days for 12 days under normal breeding Conditions. A photograph of the transplantation site 12 days after transplantation is shown in FIG. 21, and the change in volume of the tumor mass is shown in FIG. 22.

[19] = tested on: tumor in the large intestine; assay: AOM-DSS chemical carcinogenic mice, intraperitoneal administration; type: in vivo; conditions: 100 μg intraperitoneally once every 2 days for 49 days, vs PBS
Description: Azoxymethane (AOM) was administered intraperitoneally at 10 mg/kg to BALB/c mice (6 weeks old, male). Following 1 week breeding after AOM treatment, mice were administered drinking water containing dextran sulfate sodium (DSS, MP bio) diluted to 1% with distilled water by free access for 1 week. After a 1-week wash-out period, 100 μg of ferrichrome dissolved in PBS was intraperitoneally administered once every 2 days for 49 days under normal breeding conditions. After breeding, the large intestine was taken out from the mice and the tumor area was measured.
as §3, with “intraperitoneally” for “orally”, “25,” for “23,”, “26.” for “24.”

[20] = tested on: colorectal cancer cell line HT29; assay: SRB assay, colorectal cancer cell line HT29; type: cell-based
[21] = tested on: colorectal cancer cell line SW620; assay: SRB assay, colorectal cancer cell line SW620; type: cell-based
Description: as §1, §2
This fraction was subjected to mass spectrometry (TOF, ionization method: micro ESI) using Nano Frontier elD Liquid Chromatograpy Mass Spectrometer (Hitachi High-technologies), and a chart shown in FIG. 3A was obtained. The peak at m/z 763.2 in this chart was approximately consistent with that in the chart obtained for commercial ferrichrome (Sigma-Aldrich) by mass spectrometry in a similar mannar (FIG. 3B). By using commercially available ferrichrome as a measurement sample and the colorectal cancer cell line SW620 as a test cell, an antitumor activity was measured.

[22] = tested on: pancreatic cancer cell line KP3; assay: Antitumor activity, pancreatic cancer cell line KP3; type: cell-based
[23] = tested on: gastric cancer cell line MKN45; assay: SRB assay, gastric cancer cell line MKN45; type: cell-based
[24] = tested on: pancreatic cancer cell line KP1N; assay: Antitumor activity, pancreatic cancer cell line KP1N; type: cell-based
[25] = tested on: rat intestinal epithelial cell line IEC-18; assay: SRB assay, rat intestinal epithelial cell line IEC-18; conditions: rat intestinal epithelial cells
cleaved caspase-3 = assay: Western blotting for cleaved caspase-3 in SW620; type: cell-based; conditions: ferrichrome-treated SW620, Western blotting
Excerpt: (§4) Total proteins recovered from the ferrichrome-treated colorectal cancer cell line SW620 using mammalian cell extraction kit (BioVision) were subjected to Western blotting using specific antibodies for cleaved caspase-3 and PARP (Cell Signaling), respectively.

[26] = Blood AST, ALT and serum iron in C57/BL6 mice; type: in vivo; conditions: oral or intravenous, 10 μg or 100 μg/day for 7 days, vs controls
Description: Blood AST (aspartate aminotransferase), ALT (alanine aminotransferase), and serum iron were measured in C57/BL6 mice (n=5) after oral or intravenous administration of 10 μg or 100 μg of ferrichrome/day for 7 days.

PARP = assay: Western blotting for PARP in SW620; type: cell-based; conditions: ferrichrome-treated SW620, Western blotting
Excerpt: as §4

[27] = tested on: pancreatic cancer cell line bxpc3; assay: SRB assay, pancreatic cancer cell line bxpc3; type: cell-based
[28] = tested on: rat intestinal epithelial cell line IEC-18

Compound: CC(=O)N([O-])CCC[C@@H]1NC(=O)CNC(=O)CNC(=O)CNC(=O)[C@H](CCCN([O-])C(C)=O)NC(=O)[C@H](CCCN([O-])C(C)=O)NC1=O.[Fe+3] [ferrichrome] (cyclo(GGG[Orn(N5-OH,N5-Ac)][Orn(N5-OH,N5-Ac)][Orn(N5-OH,N5-Ac)]))
- antitumor activity (cell density, OD at 510 nm) [1]: dose-dependent antitumor activity
- effect on cell density of mouse primary intestinal epithelial cells [2]: not significantly reducing cell densities
- antitumor activity [3]: exhibit an antitumor activity
- expression of DDIT3 ([4]; SW620, RT-PCR and Western blotting): enhanced expression
- mRNA expression level of DDIT3 ([4]; SW620 treated vs untreated, high-throughput sequence analysis): remarkable change (increase in expression)
- expression of phosphorylated JNK (phosphorylated JNK): increased
- antitumor activity [5]: exhibit an antitumor activity
- antitumor activity (cell density, OD at 510 nm) [6]: exhibited an antitumor activity
- antitumor activity [7]: exhibit an antitumor activity
- antitumor activity [8]: exhibit an antitumor activity
- antitumor activity (cell density, OD at 510 nm) [9]: dose-dependent antitumor activity
- antitumor activity [10]: exhibit an antitumor activity
- tumor area in the large intestine [11]: significantly suppressed
- induction of apoptosis (TUNEL stain-positive cells) [12]: induction of apoptosis was also confirmed
- tumor volume ratio (volume 1 day after transplantation set to 1) ([13]; 21 days): suppressed
- tumor mass size at the transplantation site [13]: reduced to such an extent that it could be clearly distinguished by the naked eye
- antitumor activity (cell density, OD at 510 nm) [14]: dose-dependent antitumor activity
- antitumor activity [15]: exhibited an antitumor activity
- antitumor activity (cell density, OD at 510 nm) [16]: dose-dependent antitumor activity
- growth of the tumor mass (tumor mass volume) [17]: markedly inhibited the growth of the tumor mass
- increase in tumor volume [18]: markedly suppressed
- tumor area in the large intestine [19]: significantly suppressed
- antitumor activity [20]: exhibited an antitumor activity
- antitumor activity (cell density, OD at 510 nm) [21]: dose-dependent antitumor activity
- antitumor activity compared with 5-FU and cisplatin [21]: higher antitumor activity
- antitumor activity (cell density, OD at 510 nm) ([21]; listed as Ferrichrome): strong antitumor activity
- antitumor activity [22]: exhibit an antitumor activity
- antitumor activity (cell density, OD at 510 nm) [23]: dose-dependent antitumor activity
- antitumor activity [24]: exhibit an antitumor activity
- effect on cell density of IEC-18 [25]: not significantly reducing cell densities; also recorded: did not significantly affect the cell density
- expression of cleaved caspase-3 (cleaved caspase-3): increased dose-dependently
- blood ALT (alanine aminotransferase) [26]: No significant changes
- blood AST (aspartate aminotransferase) [26]: No significant changes
- serum iron [26]: No significant changes
- expression of PARP (PARP): increased dose-dependently
- antitumor activity (cell density, OD at 510 nm) [27]: dose-dependent antitumor activity

Compound: O=c1[nH]cc(F)c(=O)[nH]1 [5-FU, 5-fluorouracil]
- effect on cell density of IEC-18 [28]: reduced a cell density

Compound: N.N.[Cl][Pt][Cl] [cisplatin]
- effect on cell density of IEC-18 [28]: reduced a cell density
